≈ marks a conversion by molar mass, not a printed value.
Key:
Assay type in all cases: functional
Acinetobacter [1] = test: Antibacterial activity against imipenem-susceptible Acinetobacter assessed as resistant isolates by CLSI M7-A7 broth microdilution method
Streptococcus pneumoniae [2] = test: Antibacterial activity against penicillin-resistant Streptococcus pneumoniae assessed as susceptible isolates by CLSI M7-A7 broth microdilution method
Moraxella catarrhalis [3] = test: Antibacterial activity against beta lactamase-positive Moraxella catarrhalis by CLSI M7-A7 broth microdilution method
Serratia marcescens [4] = test: Antibacterial activity against ceftazidime-susceptible Serratia marcescens by CLSI M7-A7 broth microdilution method
Enterobacteriaceae [5] = test: Antibacterial activity against ceftazidime-nonsusceptible Enterobacteriaceae assessed as resistant isolates by CLSI M7-A7 broth microdilution method
Streptococcus pneumoniae [6] = test: Antibacterial activity against penicillin-resistant Streptococcus pneumoniae assessed as resistant isolates by CLSI M7-A7 broth microdilution method
Staphylococcus aureus [7] = test: Antibacterial activity against methicillin-susceptible Staphylococcus aureus by CLSI M7-A7 broth microdilution method
Citrobacter freundii [8] = test: Antibacterial activity against ceftazidime-susceptible Citrobacter freundii assessed as susceptible isolates by CLSI M7-A7 broth microdilution method
Klebsiella pneumoniae [9] = test: Antibacterial activity against ceftazidime-susceptible Klebsiella pneumoniae assessed as susceptible isolates by CLSI M7-A7 broth microdilution method
Haemophilus influenzae = test: Antibacterial activity against beta lactamase-positive Haemophilus influenzae assessed as susceptible isolates by CLSI M7-A7 broth microdilution method
Staphylococcus aureus [10] = test: Antibacterial activity against coagulase-negative and oxacillin-susceptible Staphylococcus aureus by CLSI M7-A7 broth microdilution method
Streptococcus pyogenes = test: Antibacterial activity against erythromycin-nonsusceptible Streptococcus pyogenes by CLSI M7-A7 broth microdilution method
Staphylococcus aureus [11] = test: Antibacterial activity against coagulase-negative and oxacillin-resistant Staphylococcus aureus assessed as susceptible isolates by CLSI M7-A7 broth microdilution method
Escherichia coli [12] = test: Antibacterial activity against ceftazidime-nonsusceptible Escherichia coli assessed as susceptible isolates by CLSI M7-A7 broth microdilution method
Staphylococcus aureus [13] = test: Antibacterial activity against coagulase-negative and oxacillin-resistant Staphylococcus aureus assessed as resistant isolates by CLSI M7-A7 broth microdilution method
Providencia sp. [14] = test: Antibacterial activity against ceftazidime-susceptible Providencia sp. assessed as resistant isolates by CLSI M7-A7 broth microdilution method
Staphylococcus aureus [15] = test: Antibacterial activity against methicillin-resistant Staphylococcus aureus assessed as susceptible isolates by CLSI M7-A7 broth microdilution method
Proteus mirabilis = test: Antibacterial activity against ceftazidime-susceptible Proteus mirabilis assessed as susceptible isolates by CLSI M7-A7 broth microdilution method
Citrobacter freundii [16] = test: Antibacterial activity against ceftazidime-susceptible Citrobacter freundii by CLSI M7-A7 broth microdilution method
Enterococcus faecium = test: Antibacterial activity against vancomycin-resistant Enterococcus faecium by CLSI M7-A7 broth microdilution method
Enterobacter cloacae [17] = test: Antibacterial activity against ceftazidime-susceptible Enterobacter cloacae assessed as resistant isolates by CLSI M7-A7 broth microdilution method
Acinetobacter [18] = test: Antibacterial activity against multidrug-resistant Acinetobacter assessed as susceptible isolates by CLSI M7-A7 broth microdilution method
Escherichia coli [19] = test: Antibacterial activity against ceftazidime-nonsusceptible Escherichia coli by CLSI M7-A7 broth microdilution method
Staphylococcus aureus [20] = test: Antibacterial activity against methicillin-susceptible Staphylococcus aureus assessed as susceptible isolates by CLSI M7-A7 broth microdilution method
Providencia sp. [21] = test: Antibacterial activity against ceftazidime-susceptible Providencia sp. assessed as susceptible isolates by CLSI M7-A7 broth microdilution method
Citrobacter freundii [22] = test: Antibacterial activity against ceftazidime-nonsusceptible Citrobacter freundii by CLSI M7-A7 broth microdilution method
Escherichia coli [23] = test: Antibacterial activity against ceftazidime-nonsusceptible Escherichia coli assessed as resistant isolates by CLSI M7-A7 broth microdilution method
Enterobacter cloacae [24] = test: Antibacterial activity against ceftazidime-nonsusceptible Enterobacter cloacae assessed as resistant isolates by CLSI M7-A7 broth microdilution method
Klebsiella pneumoniae [25] = test: Antibacterial activity against ceftazidime-nonsusceptible Klebsiella pneumoniae assessed as susceptible isolates by CLSI M7-A7 broth microdilution method
Escherichia coli [26] = test: Antibacterial activity against ceftazidime-susceptible Escherichia coli assessed as susceptible isolates by CLSI M7-A7 broth microdilution method
Staphylococcus aureus [27] = test: Antibacterial activity against methicillin-susceptible Staphylococcus aureus assessed as resistant isolates by CLSI M7-A7 broth microdilution method
Morganella morganii = test: Antibacterial activity against ceftazidime-susceptible Morganella morganii assessed as susceptible isolates by CLSI M7-A7 broth microdilution method
Enterobacter cloacae [28] = test: Antibacterial activity against ceftazidime-nonsusceptible Enterobacter cloacae assessed as susceptible isolates by CLSI M7-A7 broth microdilution method
Streptococcus pneumoniae [29] = test: Antibacterial activity against penicillin-resistant Streptococcus pneumoniae by CLSI M7-A7 broth microdilution method
Klebsiella pneumoniae [30] = test: Antibacterial activity against ceftazidime-susceptible Klebsiella pneumoniae assessed as resistant isolates by CLSI M7-A7 broth microdilution method
Escherichia coli [31] = test: Antibacterial activity against ceftazidime-susceptible Escherichia coli by CLSI M7-A7 broth microdilution method
Enterobacteriaceae [32] = test: Antibacterial activity against ceftazidime-susceptible Enterobacteriaceae assessed as susceptible isolates by CLSI M7-A7 broth microdilution method
Moraxella catarrhalis [33] = test: Antibacterial activity against beta lactamase-positive Moraxella catarrhalis assessed as susceptible isolates by CLSI M7-A7 broth microdilution method
Enterococcus faecalis [34] = test: Antibacterial activity against vancomycin-resistant Enterococcus faecalis by CLSI M7-A7 broth microdilution method
Acinetobacter [35] = test: Antibacterial activity against multidrug-resistant Acinetobacter assessed as resistant isolates by CLSI M7-A7 broth microdilution method
Streptococcus agalactiae = test: Antibacterial activity against erythromycin-susceptible Streptococcus agalactiae by CLSI M7-A7 broth microdilution method
Klebsiella pneumoniae [36] = test: Antibacterial activity against ceftazidime-nonsusceptible Klebsiella pneumoniae by CLSI M7-A7 broth microdilution method
Serratia marcescens [37] = test: Antibacterial activity against ceftazidime-susceptible Serratia marcescens assessed as susceptible isolates by CLSI M7-A7 broth microdilution method
Citrobacter freundii [38] = test: Antibacterial activity against ceftazidime-nonsusceptible Citrobacter freundii assessed as resistant isolates by CLSI M7-A7 broth microdilution method
Enterococcus faecalis [39] = test: Antibacterial activity against vancomycin-susceptible Enterococcus faecalis by CLSI M7-A7 broth microdilution method

CO/N=C(\C(=O)N[C@@H]1C(=O)N2C(C(=O)O)=C(CSc3nc(=O)c(O)nn3C)CS[C@H]12)c1csc(N)n1 [CEFTRIAXONE] was tested, and the Activity (Acinetobacter [1]) was 0%, the Activity (Streptococcus pneumoniae [2]) was 79.4% and the MIC (Moraxella catarrhalis [3]) was ≤ 0.25 µg/mL. The MIC50 (Moraxella catarrhalis [3]) was ≤ 0.25 µg/mL, the MIC90 (Moraxella catarrhalis [3]) was 1 µg/mL (≈ 1.8 µM) and the MIC50 (Serratia marcescens [4]) was 0.25 µg/mL (≈ 0.451 µM). The MIC90 (Serratia marcescens [4]) was 4 µg/mL (≈ 7.21 µM), the Activity (Enterobacteriaceae [5]) was 0% and the Activity (Streptococcus pneumoniae [6]) was 6.8%. The MIC50 (Staphylococcus aureus [7]) was 2 µg/mL (≈ 3.61 µM), the MIC90 (Staphylococcus aureus [7]) was 4 µg/mL (≈ 7.21 µM) and the Activity (Citrobacter freundii [8]) was 100%. The Activity (Klebsiella pneumoniae [9]) was 99.5%, the Activity (Haemophilus influenzae) was 100% and the MIC50 (Staphylococcus aureus [10]) was 1 µg/mL (≈ 1.8 µM). For the same molecule, the MIC90 (Staphylococcus aureus [10]) was 4 µg/mL (≈ 7.21 µM), the MIC50 (Streptococcus pyogenes) was 0.03 µg/mL (≈ 0.0541 µM) and the MIC90 (Streptococcus pyogenes) was 0.12 µg/mL (≈ 0.216 µM). It also gave an Activity (Staphylococcus aureus [11]) of 27.1%, an Activity (Escherichia coli [12]) of 9.5% and an Activity (Staphylococcus aureus [13]) of 22.1%. The Activity (Providencia sp. [14]) was 0%, the Activity (Staphylococcus aureus [15]) was 14.2% and the Activity (Proteus mirabilis) was 96.6%. The MIC50 (Citrobacter freundii [16]) was 0.12 µg/mL (≈ 0.216 µM), the MIC90 (Citrobacter freundii [16]) was 0.5 µg/mL (≈ 0.902 µM) and the MIC (Enterococcus faecium) was > 32 µg/mL. The MIC50 (Enterococcus faecium) was > 32 µg/mL, the MIC90 (Enterococcus faecium) was > 32 µg/mL and the Activity (Enterobacter cloacae [17]) was 0%. For the same molecule, the Activity (Acinetobacter [18]) was 0%, the MIC50 (Escherichia coli [19]) was > 16 µg/mL and the MIC90 (Escherichia coli [19]) was > 16 µg/mL. For the same molecule, the Activity (Staphylococcus aureus [20]) was 97.1%, the Activity (Providencia sp. [21]) was 100% and the MIC50 (Citrobacter freundii [22]) was > 16 µg/mL. The MIC90 (Citrobacter freundii [22]) was > 16 µg/mL, the Activity (Escherichia coli [23]) was 0% and the Activity (Enterobacter cloacae [24]) was 0%. The Activity (Klebsiella pneumoniae [25]) was 12.1%, the Activity (Escherichia coli [26]) was 97.4% and the Activity (Staphylococcus aureus [27]) was 0.3%. The Activity (Morganella morganii) was 100%, the Activity (Enterobacter cloacae [28]) was 8.6% and the MIC50 (Streptococcus pneumoniae [29]) was 1 µg/mL (≈ 1.8 µM). For the same molecule, the MIC90 (Streptococcus pneumoniae [29]) was 2 µg/mL (≈ 3.61 µM), the Activity (Klebsiella pneumoniae [30]) was 0% and the MIC50 (Escherichia coli [31]) was ≤ 0.06 µg/mL. It also gave an MIC90 (Escherichia coli [31]) of 0.12 µg/mL (≈ 0.216 µM), an Activity (Enterobacteriaceae [32]) of 98% and an Activity (Moraxella catarrhalis [33]) of 100%. The MIC (Enterococcus faecalis [34]) was > 1 µg/mL, the Activity (Acinetobacter [35]) was 0% and the MIC50 (Streptococcus agalactiae) was 0.06 µg/mL (≈ 0.108 µM). The MIC90 (Streptococcus agalactiae) was 0.12 µg/mL (≈ 0.216 µM), the MIC50 (Klebsiella pneumoniae [36]) was > 16 µg/mL and the MIC90 (Klebsiella pneumoniae [36]) was > 16 µg/mL. The Activity (Serratia marcescens [37]) was 93.2%, the Activity (Citrobacter freundii [38]) was 0% and the MIC50 (Enterococcus faecalis [39]) was > 32 µg/mL. For the same molecule, the MIC90 (Enterococcus faecalis [39]) was > 32 µg/mL.
For C[C@@H](O)[C@H]1C(=O)N2C(C(=O)O)=C(SCCNC=N)C[C@H]12 [IMIPENEM ANHYDROUS], the Activity (Acinetobacter [1]) was 0%, the Activity (Streptococcus pneumoniae [2]) was 12.5% and the MIC (Moraxella catarrhalis [3]) was ≤ 0.12 µg/mL. For the same molecule, the MIC50 (Moraxella catarrhalis [3]) was ≤ 0.12 µg/mL, the MIC90 (Moraxella catarrhalis [3]) was ≤ 0.12 µg/mL and the MIC50 (Serratia marcescens [4]) was 0.5 µg/mL (≈ 1.67 µM). It also gave an MIC90 (Serratia marcescens [4]) of 1 µg/mL (≈ 3.34 µM), an Activity (Enterobacteriaceae [5]) of 4.5% and an Activity (Streptococcus pneumoniae [6]) of 10.8%. For the same molecule, the MIC (Staphylococcus aureus [7]) was ≤ 0.12 µg/mL, the MIC50 (Staphylococcus aureus [7]) was ≤ 0.12 µg/mL and the MIC90 (Staphylococcus aureus [7]) was ≤ 0.12 µg/mL. The Activity (Citrobacter freundii [8]) was 100%, the Activity (Klebsiella pneumoniae [9]) was 100% and the Activity (Haemophilus influenzae) was 100%. The MIC (Staphylococcus aureus [10]) was ≤ 0.12 µg/mL, the MIC50 (Staphylococcus aureus [10]) was ≤ 0.12 µg/mL and the MIC90 (Staphylococcus aureus [10]) was ≤ 0.12 µg/mL. For the same molecule, the MIC (Streptococcus pyogenes) was ≤ 0.015 µg/mL, the MIC50 (Streptococcus pyogenes) was ≤ 0.015 µg/mL and the MIC90 (Streptococcus pyogenes) was ≤ 0.015 µg/mL. It also gave an Activity (Staphylococcus aureus [11]) of 77.3%, an Activity (Escherichia coli [12]) of 96.8% and an Activity (Staphylococcus aureus [13]) of 16.4%. It also gave an Activity (Providencia sp. [14]) of 0%, an Activity (Staphylococcus aureus [15]) of 84.6% and an Activity (Proteus mirabilis) of 100%. The MIC50 (Citrobacter freundii [16]) was 0.5 µg/mL (≈ 1.67 µM), the MIC90 (Citrobacter freundii [16]) was 1 µg/mL (≈ 3.34 µM) and the MIC (Enterococcus faecium) was > 16 µg/mL. The MIC50 (Enterococcus faecium) was > 16 µg/mL, the MIC90 (Enterococcus faecium) was > 16 µg/mL and the Activity (Enterobacter cloacae [17]) was 0%. The Activity (Acinetobacter [18]) was 68.8%, the MIC50 (Escherichia coli [19]) was 0.25 µg/mL (≈ 0.835 µM) and the MIC90 (Escherichia coli [19]) was 1 µg/mL (≈ 3.34 µM). For the same molecule, the Activity (Staphylococcus aureus [20]) was 99.7%, the Activity (Providencia sp. [21]) was 100% and the MIC50 (Citrobacter freundii [22]) was 0.5 µg/mL (≈ 1.67 µM). For the same molecule, the MIC90 (Citrobacter freundii [22]) was 1 µg/mL (≈ 3.34 µM), the Activity (Escherichia coli [23]) was 3.2% and the Activity (Enterobacter cloacae [24]) was 2.9%. The Activity (Klebsiella pneumoniae [25]) was 80.3%, the Activity (Escherichia coli [26]) was 100% and the Activity (Staphylococcus aureus [27]) was 0.3%. For the same molecule, the Activity (Morganella morganii) was 100%, the Activity (Enterobacter cloacae [28]) was 97.1% and the MIC50 (Streptococcus pneumoniae [29]) was 0.25 µg/mL (≈ 0.835 µM). It also gave an MIC90 (Streptococcus pneumoniae [29]) of 1 µg/mL (≈ 3.34 µM), an Activity (Klebsiella pneumoniae [30]) of 0% and an MIC50 (Escherichia coli [31]) of 0.12 µg/mL (≈ 0.401 µM). It also gave an MIC90 (Escherichia coli [31]) of 0.25 µg/mL (≈ 0.835 µM), an Activity (Enterobacteriaceae [32]) of 100% and an MIC50 (Enterococcus faecalis [34]) of 1 µg/mL (≈ 3.34 µM). The MIC90 (Enterococcus faecalis [34]) was 2 µg/mL (≈ 6.68 µM), the Activity (Acinetobacter [35]) was 31.3% and the MIC (Streptococcus agalactiae) was ≤ 0.015 µg/mL. The MIC50 (Streptococcus agalactiae) was ≤ 0.015 µg/mL, the MIC90 (Streptococcus agalactiae) was 0.03 µg/mL (≈ 0.1 µM) and the MIC50 (Klebsiella pneumoniae [36]) was 0.12 µg/mL (≈ 0.401 µM). It also gave an MIC90 (Klebsiella pneumoniae [36]) of 16 µg/mL (≈ 53.4 µM), an Activity (Serratia marcescens [37]) of 100% and an Activity (Citrobacter freundii [38]) of 0%. The MIC50 (Enterococcus faecalis [39]) was 1 µg/mL (≈ 3.34 µM) and the MIC90 (Enterococcus faecalis [39]) was 2 µg/mL (≈ 6.68 µM).
